Like-named read-outs stand apart in the source and are kept apart here.
Tests used:
[1] = system: 60 different human tumor cell lines; experiment: NCI Development Therapeutics Program 60 cell line screen, one dose; format: cell-based
[2] = system: NCI-H522 (NSCLC); experiment: NCI 60 one dose screen; format: cell-based, human; settings: Non-small Cell Lung Cancer
[3] = system: 60 different human tumor cell lines; experiment: cells
[4] = system: glioblastoma (SF-295); experiment: NCI 60 five dose screen
[5] = system: RPMI-8226; experiment: NCI 60 five dose screen

## C[C@]12CCc3sc(NCCc4ccccc4)nc3C1=CC[C@@H]1[C@@H]2CC[C@]2(C)C(=O)CC[C@@H]12 [IIa.2, (1S,2R,13R,14S,18S)-2,18-dimethyl-7-(2-phenylethylamino)-6-thia-8-azapentacyclo [11.7.0.02,10.05,9.014,18]icosa-5(9),7,10-trien-17-one]
[1]; Breast Cancer, BT-549
  Growth Percent: 60.37%
[1]; Breast Cancer, HS 578T
  Growth Percent: 75.51%
[1]; Breast Cancer, MCF7
  Growth Percent: 20.41%
[1]; Breast Cancer, MDA-MB-231/ATCC
  Growth Percent: 83.12%
[1]; Breast Cancer, MDA-MB-468
  Growth Percent: 32.92%
[1]; Breast Cancer, T-47D
  Growth Percent: 75.21%
[1]; CNS Cancer, SF-268
  Growth Percent: 83.93%
[1]; CNS Cancer, SNB-19
  Growth Percent: 80.20%
[1]; CNS Cancer, SNB-75
  Growth Percent: 85.55%
[1]; CNS Cancer, U251
  Growth Percent: 60.12%
[1]; Colon Cancer, COLO 205
  Growth Percent: 90.61%
[1]; Colon Cancer, HCC-2998
  Growth Percent: 105.58%
[1]; Colon Cancer, HCT-116
  Growth Percent: 21.16%
[1]; Colon Cancer, HT29
  Growth Percent: 34.29%
[1]; Colon Cancer, KM12
  Growth Percent: 74.67%
[1]; Colon Cancer, SW-620
  Growth Percent: 35.34%
[1]; Leukemia, CCRF-CEM
  Growth Percent: 8.44%
[1]; Leukemia, HL-60(TB)
  Growth Percent: 1.45%
[1]; Leukemia, K-562
  Growth Percent: 5.14%
[1]; Leukemia, MOLT-4
  Growth Percent: 4.71%
[1]; Leukemia, RPMI-8226
  Growth Percent: −5.28%
[1]; Leukemia, SR
  Growth Percent: 0.92%
[1]; Melanoma, LOX IMVI
  Growth Percent: 70.22%
[1]; Melanoma, M14
  Growth Percent: 85.36%
[1]; Melanoma, MALME-3M
  Growth Percent: 73.32%
[1]; Melanoma, MDA-MB-435
  Growth Percent: 58.12%
[1]; Melanoma, SK-MEL-2
  Growth Percent: 92.09%
[1]; Melanoma, SK-MEL-5
  Growth Percent: 65.96%
[1]; Melanoma, SK-MEL-28
  Growth Percent: 83.31%
[1]; Melanoma, UACC-62
  Growth Percent: 75.59%
[1]; Melanoma, UACC-257
  Growth Percent: 87.36%
[1]; Non-small Cell Lung Cancer, A549/ATCC
  Growth Percent: 87.76%
[1]; Non-small Cell Lung Cancer, EKVX
  Growth Percent: 92.45%
[1]; Non-small Cell Lung Cancer, HOP-62
  Growth Percent: 101.67%
[1]; Non-small Cell Lung Cancer, HOP-92
  Growth Percent: 66.42%
[1]; Non-small Cell Lung Cancer, NCI-H23
  Growth Percent: 66.61%
[1]; Non-small Cell Lung Cancer, NCI-H226
  Growth Percent: 84.07%
[1]; Non-small Cell Lung Cancer, NCI-H322M
  Growth Percent: 91.89%
[1]; Non-small Cell Lung Cancer, NCI-H460
  Growth Percent: 72.80%
[1]; Ovarian Cancer, IGROV1
  Growth Percent: 87.98%
[1]; Ovarian Cancer, NCI/ADR-RES
  Growth Percent: 70.16%
[1]; Ovarian Cancer, OVCAR-3
  Growth Percent: 6.41%
[1]; Ovarian Cancer, OVCAR-4
  Growth Percent: 74.22%
[1]; Ovarian Cancer, OVCAR-5
  Growth Percent: 100.34%
[1]; Ovarian Cancer, OVCAR-8
  Growth Percent: 72.09%
[1]; Ovarian Cancer, SK-OV-3
  Growth Percent: 111.53%
[1]; Prostate Cancer, DU-145
  Growth Percent: 33.94%
[1]; Prostate Cancer, PC-3
  Growth Percent: 38.82%
[1]; Renal Cancer, 786-0
  Growth Percent: 4.36%
[1]; Renal Cancer, A498
  Growth Percent: 86.92%
[1]; Renal Cancer, ACHN
  Growth Percent: 73.78%
[1]; Renal Cancer, CAKI-1
  Growth Percent: 73.48%
[1]; Renal Cancer, RXF 393
  Growth Percent: 20.01%
[1]; Renal Cancer, SN12C
  Growth Percent: 68.49%
[1]; Renal Cancer, TK-10
  Growth Percent: 91.34%
[1]; Renal Cancer, UO-31
  Growth Percent: 50.44%
[2]
  Growth Percent: 44.08%
[3]; 60 cell
  GI50: 3.35 µM
[3]; 60 cell, read-out: LC50
  CC50: > 100 µM
[3]; 786-0
  GI50: 2.82 µM
[3]; 786-0, read-out: LC50
  CC50: > 100 µM
[3]; A498
  GI50: 4.43 µM
[3]; A498, read-out: LC50
  CC50: > 100 µM
[3]; A549
  GI50: 7 µM
[3]; A549, read-out: LC50
  CC50: > 100 µM
[3]; ACHN
  GI50: 1.96 µM
[3]; ACHN, read-out: LC50
  CC50: 7.19 µM
[3]; BT-549
  GI50: 2.42 µM
[3]; BT-549, read-out: LC50
  CC50: > 100 µM
[3]; CAKI-1
  GI50: 3.13 µM
[3]; CAKI-1, read-out: LC50
  CC50: > 100 µM
[3]; CCRF-CEM
  GI50: 2.63 µM
[3]; CCRF-CEM, read-out: LC50
  CC50: > 100 µM
[3]; COLO 205
  GI50: 3.03 µM
[3]; COLO 205, read-out: LC50
  CC50: > 100 µM
[3]; DU-145
  GI50: 3.64 µM
[3]; DU-145, read-out: LC50
  CC50: > 100 µM
[3]; EKVX
  GI50: 90.1 µM
[3]; EKVX, read-out: LC50
  CC50: > 100 µM
[3]; HCC 2998
  GI50: 8.19 µM
[3]; HCC 2998, read-out: LC50
  CC50: > 100 µM
[3]; HCT-15
  GI50: 1.57 µM
[3]; HCT-15, read-out: LC50
  CC50: 88.7 µM
[3]; HCT-116
  GI50: 2.87 µM
[3]; HCT-116, read-out: LC50
  CC50: > 100 µM
[3]; HL-60
  GI50: 2.93 µM
[3]; HL-60, read-out: LC50
  CC50: > 100 µM
[3]; HOP-62
  GI50: 8.52 µM
[3]; HOP-62, read-out: LC50
  CC50: > 100 µM
[3]; HOP-92
  GI50: 2.75 µM
[3]; HOP-92, read-out: LC50
  CC50: > 100 µM
[3]; HT-29
  GI50: 2.21 µM
[3]; HT-29, read-out: LC50
  CC50: > 100 µM
[3]; Hs-578T
  GI50: 2.85 µM
[3]; Hs-578T, read-out: LC50
  CC50: > 100 µM
[3]; IGROV-1
  GI50: 2.6 µM
[3]; IGROV-1, read-out: LC50
  CC50: 65.6 µM
[3]; K562
  GI50: 2.89 µM
[3]; K562, read-out: LC50
  CC50: > 100 µM
[3]; KM12
  GI50: 3.6 µM
[3]; KM12, read-out: LC50
  CC50: > 100 µM
[3]; LOX IMVI
  GI50: 1.7 µM
[3]; LOX IMVI, read-out: LC50
  CC50: 5.91 µM
[3]; M14
  GI50: 3.63 µM
[3]; M14, read-out: LC50
  CC50: > 100 µM
[3]; MCF7
  GI50: 2.68 µM
[3]; MCF7, read-out: LC50
  CC50: > 100 µM
[3]; MDA-MB-231
  GI50: 3.4 µM
[3]; MDA-MB-231, read-out: LC50
  CC50: > 100 µM
[3]; MDA-MB-435
  GI50: 3.01 µM
[3]; MDA-MB-435, read-out: LC50
  CC50: > 100 µM
[3]; MDA-MB-468
  GI50: 2.99 µM
[3]; MDA-MB-468, read-out: LC50
  CC50: > 100 µM
[3]; MOLT-4
  GI50: 2.58 µM
[3]; MOLT-4, read-out: LC50
  CC50: > 100 µM
[3]; Malme-3M
  GI50: 2.18 µM
[3]; Malme-3M, read-out: LC50
  CC50: > 100 µM
[3]; NCI-H23
  GI50: 5.03 µM
[3]; NCI-H226
  GI50: 2.42 µM
[3]; NCI-H226, read-out: LC50
  CC50: > 100 µM
[3]; NCI-H322M
  GI50: 96.9 µM
[3]; NCI-H322M, read-out: LC50
  CC50: > 100 µM
[3]; NCI-H460
  GI50: 4.47 µM
[3]; NCI-H460, read-out: LC50
  CC50: > 100 µM
[3]; NCI-H522
  GI50: 1.78 µM
[3]; NCI-H522, read-out: LC50
  CC50: 7.45 µM
[3]; NCI/ADR-RES
  GI50: 2.31 µM
[3]; NCI/ADR-RES, read-out: LC50
  CC50: > 100 µM
[3]; OVCAR-3
  GI50: 2.08 µM
[3]; OVCAR-3, read-out: LC50
  CC50: > 100 µM
[3]; OVCAR-4
  GI50: 3.93 µM
[3]; OVCAR-4, read-out: LC50
  CC50: > 100 µM
[3]; OVCAR-5
  GI50: 4.44 µM
[3]; OVCAR-5, read-out: LC50
  CC50: > 100 µM
[3]; OVCAR-8
  GI50: 2.77 µM
[3]; OVCAR-8, read-out: LC50
  CC50: > 100 µM
[3]; RXF 393
  GI50: 1.73 µM
[3]; RXF 393, read-out: LC50
  CC50: 30.9 µM
[3]; SF-268
  GI50: 4.62 µM
[3]; SF-268, read-out: LC50
  CC50: > 100 µM
[3]; SK-MEL-2
  GI50: 17 µM
[3]; SK-MEL-2, read-out: LC50
  CC50: > 100 µM
[3]; SK-MEL-5
  GI50: 4.57 µM
[3]; SK-MEL-5, read-out: LC50
  CC50: > 100 µM
[3]; SK-MEL-28
  GI50: 3.37 µM
[3]; SK-MEL-28, read-out: LC50
  CC50: > 100 µM
[3]; SK-OV-3
  GI50: > 100 µM
[3]; SK-OV-3, read-out: LC50
  CC50: > 100 µM
[3]; SN12C
  GI50: 2.89 µM
[3]; SN12C, read-out: LC50
  CC50: > 100 µM
[3]; SNB-19
  GI50: 97.5 µM
[3]; SNB-19, read-out: LC50
  CC50: > 100 µM
[3]; SNB-75
  GI50: 2.67 µM
[3]; SNB-75, read-out: LC50
  CC50: > 100 µM
[3]; SW-620
  GI50: 2.3 µM
[3]; SW-620, read-out: LC50
  CC50: > 100 µM
[3]; T47D
  GI50: 3.05 µM
[3]; T47D, read-out: LC50
  CC50: > 100 µM
[3]; TK-10
  GI50: 4.15 µM
[3]; TK-10, read-out: LC50
  CC50: > 100 µM
[3]; U-251
  GI50: 4.97 µM
[3]; U-251, read-out: LC50
  CC50: > 100 µM
[3]; UACC-62
  GI50: 2.67 µM
[3]; UACC-62, read-out: LC50
  CC50: > 100 µM
[3]; UACC-257
  GI50: 4.92 µM
[3]; UACC-257, read-out: LC50
  CC50: > 100 µM
[3]; UO-31
  GI50: 4.03 µM
[3]; UO-31, read-out: LC50
  CC50: > 100 µM
[4]; Homo sapiens, SF-295
  GI50: 18.9 µM
[4]; Homo sapiens, SF-295, read-out: LC50
  CC50: > 100 µM
[4]; SF-295 (CNS Cancer), five dose
  TGI: >1.00E−4
[5]; Homo sapiens, RPMI-8226
  GI50: 1.79 µM
[5]; Homo sapiens, RPMI-8226, read-out: LC50
  CC50: > 100 µM
[5]; RPMI-8226 (Leukemia), five dose
  TGI: 5.69E−6
